Results reported in patent US20230064809A1, “SUBSTITUTED AMINOQUINOLONES AS DGKALPHA INHIBITORS FOR IMMUNE ACTIVATION” (Bayer Aktiengesellschaft, priority 2019, published 2023).

Molecular target: DGKα (Homo sapiens, UniProt P23743)
Assay: Human DGKα kinase activity inhibition assay (ADP-Glo)
Format: biochemical
Parameters: made in house; host or cells: Sf9 insect cells, baculovirus
Settings: in vitro, C-terminally FLAG-tagged recombinant full-length human DGKα, 1,2-dioleoyl-sn-glycerol substrate, ADP-Glo readout
Experimental: Human DGKα Kinase Activity Inhibition Assay. Human DGKα inhibitory activity of compounds of the present invention was quantified employing the human DGKα kinase activity assay as described in the following paragraphs. In essence, the enzyme activity was measured by quantification of the adenosine-di-phosphate (ADP) generated as a co-product of the enzyme reaction via the “ADP-Glo™ Kinase Assay” kit from the company Promega. This detection system works as follows: In a first step the ATP not consumed in the kinase reaction is quantitatively converted to […] (“ADP-Glo-reagent”), then the adenylate cyclase is stopped and the ADP generated in the kinase reaction converted to ATP, which subsequently generates in a luciferase-based reaction a glow-luminescence signal (“Kinase Detection Reagent”). C-terminally FLAG-tagged, recombinant full-length human DGKα (expressed in baculovirus infected insect cells, purified using anti-Flag pulldown and size exclusion chromatography as described below, DGKa_hu_1) was used as enzyme. As substrate for the kinase 1,2-dioleoyl-sn-glycerol, reconstituted in octyl-β-D-glucopyranoside micelles, was used. For the preparation of the micelles, 1 volume of a 16.1 mM solution of 1,2-dioleoyl-sn-glycerol (Avanti, Cat. #08001-25G) in chloroform was slowly evaporated using a nitrogen stream. Subsequently, 22.55 volumes of a 510 mM solution of octyl-β-D-glucopyranoside (Sigma-Aldrich, Cat. #08001-10G) in 50 mM MOPS buffer (pH 7.4) were added, and the mixture was sonicated in an ultrasonic bath for 20 s. Then 35 volumes of 50 mM MOPS buffer (pH 7.4) were added to yield a solution of 0.28 mM 1,2 dioleoyl-sn-glycerol and 200 mM octyl-β-D-glucopyranoside, which was aliquoted, flash-frozen in liquid nitrogen, and stored at −20° C. until use. For each experiment, a fresh aliquot was quickly thawed and diluted 24-fold with aqueous assay buffer (described below) containing 95.7 μM adenosine triphosphate (Promega) to yield a 1.67-fold concentrated substrate solution. For the assay 50 nl of a 100-fold concentrated solution of the test compound in dimethyl sulfoxide (DMSO, Sigma) was pipetted into either a white 1536-well or a white low-volume 384-well microtiter plate (both Greiner Bio-One, Frickenhausen, Germany). […] The concentration of DGK a was adjusted depending of the activity of the enzyme lot and was chosen appropriate to have the assay in the linear range, a typical concentration is about 0.1 nM. The reaction was stopped by the addition of 2.5 μl of “ADP-Glo-reagent” (1 to 1.5 diluted with water) and the resulting mixture was incubated at 22° C. for 1 h to convert the ATP no t consumed in the kinase reaction completely to […]. […] The amount of emitted light was taken as a measure for the amount of ADP generated and thereby for the activity of the DGKα.

Chain of DGKα (P23743 with tags, fused parts or gaps): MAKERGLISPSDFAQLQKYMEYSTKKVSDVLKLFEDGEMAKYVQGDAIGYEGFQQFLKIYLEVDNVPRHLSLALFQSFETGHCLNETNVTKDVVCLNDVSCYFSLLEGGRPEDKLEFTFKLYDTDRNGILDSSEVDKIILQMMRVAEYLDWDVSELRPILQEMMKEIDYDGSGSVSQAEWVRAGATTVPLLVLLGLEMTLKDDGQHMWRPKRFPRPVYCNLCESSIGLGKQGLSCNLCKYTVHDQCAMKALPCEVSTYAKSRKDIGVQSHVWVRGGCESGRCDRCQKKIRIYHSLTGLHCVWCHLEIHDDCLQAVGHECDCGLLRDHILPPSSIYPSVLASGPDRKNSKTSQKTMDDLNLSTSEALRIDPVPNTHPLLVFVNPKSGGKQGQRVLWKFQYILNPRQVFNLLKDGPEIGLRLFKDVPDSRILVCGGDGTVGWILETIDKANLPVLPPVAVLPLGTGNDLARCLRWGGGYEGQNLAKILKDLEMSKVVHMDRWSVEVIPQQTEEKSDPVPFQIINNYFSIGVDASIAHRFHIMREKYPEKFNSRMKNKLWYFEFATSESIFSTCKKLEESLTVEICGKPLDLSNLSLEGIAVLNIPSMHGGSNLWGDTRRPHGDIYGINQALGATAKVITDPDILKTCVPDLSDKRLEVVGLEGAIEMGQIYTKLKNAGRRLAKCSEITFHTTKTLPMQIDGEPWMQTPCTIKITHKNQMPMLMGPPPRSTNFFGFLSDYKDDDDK

Q: Cn1c(=O)c(C#N)c(N2CCC3(CCN(c4ccccc4)C3)CC2)c2ccccc21 [Example 1, 1-methyl-2-oxo-4-(2-phenyl-2,8-diazaspiro[4.5]decan-8-yl)-1,2-dihydroquinoline-3-carbonitrile] was tested. Which IC50 did it give?
A: 34 nM

Q: With Cn1c(=O)c(C#N)c(N2CCC3(CCN(c4ccc(F)cc4)C3)CC2)c2ccccc21 [Example 2, 4-[2-(4-fluorophenyl)-2,8-diazaspiro[4.5]decan-8-yl]-1-methyl-2-oxo-1,2-dihydroquinoline-3-carbonitrile] as the molecule, how does the IC50 read?
A: 38 nM

Q: How did the IC50 turn out when Cn1c(=O)c(C#N)c(N2CCC3(CCN(c4ccc(F)c(F)c4)C3)CC2)c2ccccc21 [Example 3, 4-[2-(3,4-difluorophenyl)-2,8-diazaspiro[4.5]decan-8-yl]-1-methyl-2-oxo-1,2-dihydro-quinoline-3-carbonitrile] was run?
A: 39 nM

Q: Which IC50 does the source give for Cn1c(=O)c(C#N)c(N2CCC3(CN(c4ccc(F)cc4)C3)C2)c2ccccc21 [Example 4, 4-[2-(4-fluorophenyl)-2,6-diazaspiro[3.4]octan-6-yl]-1-methyl-2-oxo-1,2-dihydroquinoline-3-carbonitrile] here?
A: 35 nM

Q: How did the IC50 turn out when COc1ccc(N2CC3(CCN(c4c(C#N)c(=O)n(C)c5ccccc45)C3)C2)cc1 [Example 5, 4-[2-(4-methoxyphenyl)-2,6-diazaspiro[3.4]octan-6-yl]-1-methyl-2-oxo-1,2-dihydro-quinoline-3-carbonitrile] was run?
A: 103 nM

Q: Cn1c(=O)c(C#N)c(N2CCC3(CN(c4ccc(Cl)cc4)C3)C2)c2ccccc21 [Example 6, 4-[2-(4-chlorophenyl)-2,6-diazaspiro[3.4]octan-6-yl]-1-methyl-2-oxo-1,2-dihydroquinoline-3-carbonitrile] was tested. Which IC50 did it give?
A: 10 nM

Q: With Cn1c(=O)c(C#N)c(N2CC3(CCN(c4ccc(F)cc4)C3)C2)c2ccccc21 [Example 7, 4-[6-(4-fluorophenyl)-2,6-diazaspiro[3.4]octan-2-yl]-1-methyl-2-oxo-1,2-dihydroquinoline-3-carbonitrile] as the molecule, how does the IC50 read?
A: 63 nM

Q: For Cn1c(=O)c(C#N)c(N2CCC3(CCN(c4ccc(OC(F)(F)F)cc4)C3)CC2)c2ccccc21 [Example 8, 1-methyl-2-oxo-4-{2-[4-(trifluoromethoxy)phenyl]-2,8-diazaspiro[4.5]decan-8-yl}-1,2-dihydroquinoline-3-carbonitrile], which IC50 is on record?
A: 17 nM

Q: For COc1cccc(N2CCC3(CCN(c4c(C#N)c(=O)n(C)c5ccccc45)CC3)C2)c1 [Example 9, 4-[2-(3-methoxyphenyl)-2,8-diazaspiro[4.5]decan-8-yl]-1-methyl-2-oxo-1,2-dihydro-quinoline-3-carbonitrile], which IC50 is on record?
A: 11 nM

Q: With COc1ccccc1N1CCC2(CCN(c3c(C#N)c(=O)n(C)c4ccccc34)CC2)C1 [Example 10, 4-[2-(2-methoxyphenyl)-2,8-diazaspiro[4.5]decan-8-yl]-1-methyl-2-oxo-1,2-dihydro-quinoline-3-carbonitrile] as the molecule, how does the IC50 read?
A: 18 nM

Q: How did the IC50 turn out when CN(C)c1cccc(N2CCC3(CCN(c4c(C#N)c(=O)n(C)c5ccccc45)CC3)C2)c1 [Example 11, 4-{2-[3-(dimethylamino)phenyl]-2,8-diazaspiro[4.5]decan-8-yl}-1-methyl-2-oxo-1,2-dihydroquinoline-3-carbonitrile] was run?
A: 28 nM

Q: How did the IC50 turn out when Cn1c(=O)c(C#N)c(N2CCC3(CCN(c4cccc(OC(F)(F)F)c4)C3)CC2)c2ccccc21 [Example 12, 1-methyl-2-oxo-4-{2-[3-(trifluoromethoxy)phenyl]-2,8-diazaspiro[4.5]decan-8-yl}-1,2-dihydroquinoline-3-carbonitrile] was run?
A: 50 nM

Q: CN(C)c1ccccc1N1CCC2(CCN(c3c(C#N)c(=O)n(C)c4ccccc34)CC2)C1 [Example 13, 4-{2-[2-(dimethylamino)phenyl]-2,8-diazaspiro[4.5]decan-8-yl}-1-methyl-2-oxo-1,2-dihydroquinoline-3-carbonitrile] was tested. Which IC50 did it give?
A: 51 nM

Q: How did the IC50 turn out when Cn1c(=O)c(C#N)c(N2CCC3(CCN(c4ccccc4OC(F)(F)F)C3)CC2)c2ccccc21 [Example 14, 1-methyl-2-oxo-4-{2-[2-(trifluoromethoxy)phenyl]-2,8-diazaspiro[4.5]decan-8-yl}-1,2-dihydroquinoline-3-carbonitrile] was run?
A: 61 nM

Q: With COc1ccc(N2CCC3(CCN(c4c(C#N)c(=O)n(C)c5ccccc45)CC3)C2)cc1 [Example 15, 4-[2-(4-methoxyphenyl)-2,8-diazaspiro[4.5]decan-8-yl]-1-methyl-2-oxo-1,2-dihydro-quinoline-3-carbonitrile] as the molecule, how does the IC50 read?
A: 91 nM

Q: How did the IC50 turn out when Cn1c(=O)c(C#N)c(N2CC3(CCCN(c4ccc(F)cc4)C3)C2)c2ccccc21 [Example 16, 4-[6-(4-fluorophenyl)-2,6-diazaspiro[3.5]nonan-2-yl]-1-methyl-2-oxo-1,2-dihydro-quinoline-3-carbonitrile] was run?
A: 15 nM

Q: Cn1c(=O)c(C#N)c(N2CCC3(CN(c4ccc(OC(F)(F)F)cc4)C3)C2)c2ccccc21 [Example 17, 1-methyl-2-oxo-4-{2-[4-(trifluoromethoxy)phenyl]-2,6-diazaspiro[3.4]octan-6-yl}-1,2-dihydroquinoline-3-carbonitrile] was tested. Which IC50 did it give?
A: 3.5 nM

Q: How did the IC50 turn out when Cn1c(=O)c(C#N)c(N2CC3(CCN(c4ccc(OC(F)(F)F)cc4)C3)C2)c2ccccc21 [Example 18, 1-methyl-2-oxo-4-{6-[4-(trifluoromethoxy)phenyl]-2,6-diazaspiro[3.4]octan-2-yl}-1,2-dihydroquinoline-3-carbonitrile] was run?
A: 19 nM

Q: For Cn1c(=O)c(C#N)c(N2CCC3(CCN(c4ccc(OC(F)(F)F)cc4)C3)C2)c2ccccc21 (stereo not shown) [Example 19, 1-methyl-2-oxo-4-{7-[4-(trifluoromethoxy)phenyl]-2,7-diazaspiro[4.4]nonan-2-yl}-1,2-dihydroquinoline-3-carbonitrile], which IC50 is on record?
A: 122 nM

Q: With COc1cccc(N2CC3(CCN(c4c(C#N)c(=O)n(C)c5ccccc45)C3)C2)c1 [Example 20, 4-[2-(3-methoxyphenyl)-2,6-diazaspiro[3.4]octan-6-yl]-1-methyl-2-oxo-1,2-dihydroquinoline-3-carbonitrile] as the molecule, how does the IC50 read?
A: 155 nM

Q: Which IC50 does the source give for CN(C)c1ccc(N2CC3(CCN(c4c(C#N)c(=O)n(C)c5ccccc45)C3)C2)cc1 [Example 21, 4-{2-[4-(dimethylamino)phenyl]-2,6-diazaspiro[3.4]octan-6-yl}-1-methyl-2-oxo-1,2-dihydroquinoline-3-carbonitrile] here?
A: 163 nM

Q: With Cn1c(=O)c(C#N)c(N2CCC3(CN(c4ccc(N5CCCC5=O)cc4)C3)C2)c2ccccc21 [Example 22, 1-methyl-2-oxo-4-{2-[4-(2-oxopyrrolidin-1-yl)phenyl]-2,6-diazaspiro[3.4]octan-6-yl}-1,2-dihydroquinoline-3-carbonitrile] as the molecule, how does the IC50 read?
A: 477 nM

Q: With Cn1c(=O)c(C#N)c(N2CCC3(CCN(c4ccc(F)cc4)C3)C2)c2ccccc21 (stereo not shown) [Example 23, 4-[7-(4-fluorophenyl)-2,7-diazaspiro[4.4]nonan-2-yl]-1-methyl-2-oxo-1,2-dihydro-quinoline-3-carbonitrile] as the molecule, how does the IC50 read?
A: 532 nM

Q: Cn1c(=O)c(C#N)c(N2CCC3(CN(c4ccc(N5CCOCC5)cc4)C3)C2)c2ccccc21 [Example 24, 1-methyl-4-{2-[4-(morpholin-4-yl)phenyl]-2,6-diazaspiro[3.4]octan-6-yl}-2-oxo-1,2-dihydroquinoline-3-carbonitrile] was tested. Which IC50 did it give?
A: 1700 nM

Q: How did the IC50 turn out when Cn1c(=O)c(C(N)=O)c(N2CCC3(CCN(c4ccc(OC(F)(F)F)cc4)C3)CC2)c2ccccc21 [Example 25, 1-methyl-2-oxo-4-{2-[4-(trifluoromethoxy)phenyl]-2,8-diazaspiro[4.5]decan-8-yl}-1,2-dihydroquinoline-3-carboxamide] was run?
A: 3 nM

Q: For Cn1c(=O)c(C(N)=O)c(N2CCC3(CN(c4ccc(Cl)cc4)C3)C2)c2ccccc21 [Example 26, 4-[2-(4-chlorophenyl)-2,6-diazaspiro[3.4]octan-6-yl]-1-methyl-2-oxo-1,2-dihydroquinoline-3-carboxamide], which IC50 is on record?
A: 42 nM

Q: With Cn1c(=O)c(C(N)=O)c(N2CCC3(CN(c4ccc(F)cc4)C3)C2)c2ccccc21 [Example 27, 4-[2-(4-fluorophenyl)-2,6-diazaspiro[3.4]octan-6-yl]-1-methyl-2-oxo-1,2-dihydroquinoline-3-carboxamide] as the molecule, how does the IC50 read?
A: 158 nM

Q: Which IC50 does the source give for CN(C)c1ccc(N2CC3(CCN(c4c(C(N)=O)c(=O)n(C)c5ccccc45)C3)C2)cc1 [Example 28, 4-{2-[4-(dimethylamino)phenyl]-2,6-diazaspiro[3.4]octan-6-yl}-1-methyl-2-oxo-1,2-dihydroquinoline-3-carboxamide] here?
A: 1720 nM
